Test results from ChEMBL document CHEMBL1201862, “PubChem BioAssay data set” (2004).
The source made the active and inactive calls.

Legend:
[1] = biological target: Major prion protein (Homo sapiens, UniProt P04156); assay type: functional, cell-based
[2] = cells
[3] = biological target: T1, High affinity choline transporter 1 (Homo sapiens, UniProt Q9GZV3); assay: CHT inhibitors, dose response, cell-based, 5-point CRC, membrane potential dye (AID 504840); assay type: functional
T1 sequence (Q9GZV3 whole entry): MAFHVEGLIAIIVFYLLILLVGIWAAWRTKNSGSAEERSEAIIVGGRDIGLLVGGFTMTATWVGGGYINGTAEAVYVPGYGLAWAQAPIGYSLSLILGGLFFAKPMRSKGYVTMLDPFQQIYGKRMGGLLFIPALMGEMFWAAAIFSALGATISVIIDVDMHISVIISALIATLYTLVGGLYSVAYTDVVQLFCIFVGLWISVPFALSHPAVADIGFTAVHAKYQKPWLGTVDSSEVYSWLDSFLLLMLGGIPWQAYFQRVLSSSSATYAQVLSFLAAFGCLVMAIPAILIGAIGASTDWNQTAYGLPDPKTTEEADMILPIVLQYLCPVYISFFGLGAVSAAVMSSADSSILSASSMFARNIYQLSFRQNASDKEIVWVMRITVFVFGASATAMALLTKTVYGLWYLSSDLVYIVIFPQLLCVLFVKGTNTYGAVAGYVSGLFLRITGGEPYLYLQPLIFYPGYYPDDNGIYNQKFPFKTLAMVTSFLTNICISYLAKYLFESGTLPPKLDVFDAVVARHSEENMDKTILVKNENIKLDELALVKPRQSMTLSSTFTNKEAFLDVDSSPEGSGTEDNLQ

[4] = human group III sPLA2 inhibitors, dose response, biochemical, QFRET, IC50 (AID 743457);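 further: green fluorescence rise as the enzyme cleaves BODIPY PC-A2 in liposomes; potency for inhibition of the enzyme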
[5] = C. albicans growth with fluconazole, confirmation, fluorescence, retest (AID 2467); assay type: functional, cell-based
[6] = NIH-3T3 fibroblast cytotoxicity, dose response, cytotoxicity control, cell-based, fluorescence, Alamar Blue, secondary assay (AID 2327); assay type: functional;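 further: NIH-3T3 mouse fibroblasts cultured with fluconazole at 8 µg/mL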
[7] = biological target: T2, Short transient receptor potential channel 4 (Mus musculus, UniProt Q9QUQ5); assay: mouse TRPC4 channel activators, dose response, cell-based, HEK293 TRPC4/mu-opioid, Fluo-4 calcium (AID 434937); assay type: functional
T2 sequence (Q9QUQ5 whole entry): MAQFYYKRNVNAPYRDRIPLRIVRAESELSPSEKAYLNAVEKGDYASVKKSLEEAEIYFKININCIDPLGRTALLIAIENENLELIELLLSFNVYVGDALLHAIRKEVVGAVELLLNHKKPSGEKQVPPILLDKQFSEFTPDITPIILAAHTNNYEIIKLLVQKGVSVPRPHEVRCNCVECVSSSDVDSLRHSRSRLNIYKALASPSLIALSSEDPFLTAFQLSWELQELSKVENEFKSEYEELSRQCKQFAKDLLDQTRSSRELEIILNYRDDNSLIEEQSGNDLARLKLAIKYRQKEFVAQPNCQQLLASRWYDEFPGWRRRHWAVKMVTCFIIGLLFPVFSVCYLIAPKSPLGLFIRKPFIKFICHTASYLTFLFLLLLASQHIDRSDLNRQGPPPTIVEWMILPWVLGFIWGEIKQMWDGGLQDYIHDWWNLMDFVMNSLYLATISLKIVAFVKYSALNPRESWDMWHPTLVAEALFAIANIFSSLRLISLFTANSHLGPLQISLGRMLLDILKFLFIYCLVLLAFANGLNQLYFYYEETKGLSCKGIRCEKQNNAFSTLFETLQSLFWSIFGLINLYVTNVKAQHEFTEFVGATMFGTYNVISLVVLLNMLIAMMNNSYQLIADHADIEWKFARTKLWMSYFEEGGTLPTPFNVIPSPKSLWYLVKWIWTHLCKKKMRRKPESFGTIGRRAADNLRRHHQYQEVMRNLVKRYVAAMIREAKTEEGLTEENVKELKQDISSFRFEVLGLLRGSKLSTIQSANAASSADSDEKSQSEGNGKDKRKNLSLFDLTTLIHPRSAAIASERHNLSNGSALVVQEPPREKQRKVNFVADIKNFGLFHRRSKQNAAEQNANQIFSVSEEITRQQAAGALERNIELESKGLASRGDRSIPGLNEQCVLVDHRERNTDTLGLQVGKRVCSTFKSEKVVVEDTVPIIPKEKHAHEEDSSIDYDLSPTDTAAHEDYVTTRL

[8] = HEK293T cytotoxicity, dose response, cytotoxicity control for miR-122 modulator project, cell-based, inhibitor set, cherry-pick, set 2 (AID 720697); assay type: functional
[9] = HEK293T cytotoxicity, dose response, cytotoxicity control for miR-122 modulator project, cell-based, activator set, cherry-pick (AID 720690); assay type: functional;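 further: HEK293T human cells scored for general mammalian cytotoxicity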
[10] = THP-1 cell cytotoxicity, dose response, cytotoxicity control for non-replicating M. tuberculosis project (AID 489025); assay type: functional
[11] = tested on: INS1; assay: beta cell apoptosis inhibitors, cytokine rescue, dose response, luminescence, retest (AID 449756); assay type: functional, cell-based; settings: Rattus norvegicus;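 further: cell death triggered by IL-1 beta plus TNF-alpha plus IFN-gamma mixture; protective hits raise ATP signal compared with cytokine alone wells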
[12] = HepG2 cell cytotoxicity, dose response, cytotoxicity control for non-replicating M. tuberculosis project (AID 489018); assay type: functional; settings: Mycobacterium tuberculosis
[13] = Vero E6 cell cytotoxicity, dose response, cytotoxicity control for non-replicating M. tuberculosis project, secondary assay (AID 492998); assay type: functional, VeroE6; settings: Vero C1008
[14] = IOSE-T80 ovarian epithelial cell cytotoxicity, dose response, cytotoxicity control for PAX8 inhibitor project, plate reader, dry powder samples (AID 743045); assay type: functional, cell-based
[15] = cytotoxicity in OVCAR8 ovarian cancer cells, dose response, PAX8 project, cell-based, plate reader, dry powder samples (AID 743197); assay type: functional; settings: OVCAR-8
[16] = IGROV1 ovarian cancer cell cytotoxicity, dose response, PAX8 inhibitor project, plate reader, dry powder samples (AID 743043); assay type: functional, cell-based; settings: IGROV-1
[17] = NIH:OVCAR-3 ovarian cancer cell cytotoxicity, dose response, PAX8 inhibitor project, plate reader, dry powder samples (AID 743044); assay type: functional, cell-based
[18] = biological target: Paired box protein Pax-8 (Homo sapiens, UniProt Q06710); assay: inhibitors of PAX8-driven TPO luciferase reporter, dose response, RMG-I cells, cherry-pick (AID 687027); assay type: functional, cell-based;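 further: luciferase reporter driven by Pax8 target thyroperoxidase promoter measured by SteadyGlo luminescence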
[19] = cytotoxicity in HeLa cells, dose response, cytotoxicity control, cell-based, plate reader, dry powder (AID 651946); assay type: functional
[20] = CTGF mRNA reduction under YAP1 overexpression, dose response, mechanism study for YAP1 pathway inhibitor project, DLD1 cells, RT-qPCR, cherry-pick (AID 1053127); assay type: functional, cell-based; settings: DLD-1
[21] = YAP1 pathway inhibition via CTGF transcript levels, dose response, cell-based, DLD1 colon cancer, RT-qPCR, cherry-pick (AID 1053122); assay type: functional; settings: Cancer cell lines
[22] = HEK293 cell cytotoxicity, dose response, cytotoxicity control, cherry-picks, set 5 (AID 1053117); assay type: functional, cell-based

Structure (SMILES): COc1cccc(NC(=O)CCSc2ccc3ccccc3n2)c1
- IC50 [1]: 3.97 µM (active)
- IC50 [2]: > 138 µM (inactive)

Structure (SMILES): O=C(NNC(=S)NC(=O)C12CC3CC(CC(C3)C1)C2)c1ccncc1
- IC50 [3]: 28.8 µM (active)
- IC50 [4]: > 122 µM (inactive)
- EC50 [5]: 3.2 µM (active)
- EC50 [6]: 26.4 µM (active)
- EC50 [7]: 4.22 µM (active)

Structure (SMILES): N#CC1=C(N)Oc2c(ccc3cccnc23)C1c1ccccc1 (configuration not stated)
- AC50 [8]: 2.47 µM (active)
- AC50 [9]: 42.5 µM (active)
- CC50 [10]: 4.84 µM (active)
- AC50 [11]: 4.54 µM (active)
- CC50 [12]: > 20 µM (active)
- CC50 [13]: 5.56 µM (active)

Structure (SMILES): C[C@H](CO)N1C[C@H](C)[C@H](CN(C)Cc2ccc(C(=O)Nc3ccccc3N)cc2)Oc2ccc(N(C)C)cc2C1=O
- AC50 [14]: 56.3 µM (active)
- AC50 [15]: 33.7 µM (active)
- AC50 [16]: 23.4 µM (active)
- AC50 [17]: 43.9 µM (active)
- AC50 [18]: 10.5 µM (active)

Structure (SMILES): COc1ccccc1CSc1nnc(-c2ccccc2)o1
- AC50 [19]: > 52 µM (inactive)

Structure (SMILES): CO[C@@H](CN(C)S(=O)(=O)c1ccc(C)cc1)[C@H](C)CN([C@@H](C)CO)S(=O)(=O)c1cccc(Cl)c1
- AC50 [20]: 17.7 µM (active)
- AC50 [21]: 16.4 µM (active)

Structure (SMILES): C[C@@H]1CN([C@H](C)CO)C(=O)c2cc(NC(=O)C3CCCCC3)ccc2O[C@H]1CN(C)Cc1ccc(-c2ccccc2)cc1
- AC50 [22]: > 52 µM (inactive)
